We go through 14 compounds from patent US20240025907A1, “QUINAZOLINE PAN-KRas INHIBITORS” (Mirati Therapeutics, Inc., priority 2022, published 2024).

Like-named read-outs stand apart in the source and are kept apart here.

Assay type in all cases: cell-based
Assay [1] concerns KRas-mediated Phosphorylation of ERK in HCT116 cells. The assay can be described thus: Cisbio HTRF pERK assay, HCT116 cells. To be noted: for inhibition at 0.1 µM: Homo sapiens, HCT-116, HCT116 cells. On the technique in general: TR-FRET usually uses a lanthanide donor and a delayed reading to cut background.
For assay [2], the system named is KRas-mediated Phosphorylation of ERK in AsPC-1 cells. The assay can be described thus: Cisbio HTRF pERK assay, AsPC-1 cells. To be noted: for IC50: 3 hrs compound, read-out: Inhibition (HTRF IC50 nM) of KRas-mediated Phosphorylation of ERK, AsPC-1; for inhibition at 0.1 µM: ASPC1, single point at 100 nM.
For assay [3], the system named is KRas-mediated Phosphorylation of ERK in H727 cells. The assay can be described thus: Cisbio HTRF pERK assay, H727 cells. To be noted: for IC50: 3 hrs compound, read-out: Inhibition (HTRF IC50 nM) of KRas-mediated Phosphorylation of ERK, H727; for inhibition at 0.1 µM: Homo sapiens, NCI-H727, single point at 100 nM.
Assay [4] has as its system KRas-mediated Phosphorylation of ERK in H460 cells. The assay can be described thus: Cisbio HTRF pERK assay, H460 cells. The settings on record: for inhibition at 0.1 µM: Homo sapiens, NCI-H460, H460 cells.
Assay [5] has as its system KRas-mediated Phosphorylation of ERK in H358 cells. The experiment in a line: Cisbio HTRF pERK assay, H358 cells. To be noted: for IC50: H358 cells, 3 hrs compound, read-out: Inhibition (HTRF IC50 nM) of KRas-mediated Phosphorylation of ERK, H358; for inhibition at 0.1 µM: Homo sapiens, NCI-H358, H358 cells, single point at 100 nM.
The subject of assay [6] is KRas-mediated Phosphorylation of ERK in A549 cells. The experiment in a line: Cisbio HTRF pERK assay, A549 cells. To be noted: for IC50: A549 cells, 3 hrs compound, read-out: Inhibition (HTRF IC50 nM) of KRas-mediated Phosphorylation of ERK, A549; for inhibition at 0.1 µM: Homo sapiens, A549, A549 cells, single point at 100 nM.

The term IC50 denotes the concentration that gives 50% inhibition. Turning to `CN(C)C(=O)c1cc2n(n1)CCCN(c1nc(OC[C@@]34CCCN3C/C(=C\F)C4)nc3c(F)c(-c4ccc(F)c5sc(N)c(C#N)c45)c(Cl)cc13)C2` (atropisomer, axis not shown) [Example 194, 5-((S)-7-(2-amino-3-cyano-7-fluorobenzo[b]thiophen-4-yl)-6-chloro-8-fluoro-2-(((S,Z)-2-(fluoromethylene)tetrahydro-1H-pyrrolizin-7a(5H)-yl)methoxy)quinazolin-4-yl)-N,N-dimethyl-5,6,7,8-tetrahydro-4H-pyrazolo[1,5-a][1,4]diazepine-2-carboxamide], the IC50 in assay [1] (HCT116 cells, 3 hrs compound, read-out: Inhibition (HTRF IC50 nM) of KRas-mediated Phosphorylation of ERK, HCT116) was determined as 896 nM; in assay [2] (Homo sapiens, ASPC1, 3 h), 192 nM; in assay [3], 342 nM; in assay [4] (H460 cells, 3 hrs compound, read-out: Inhibition (HTRF IC50 nM) of KRas-mediated Phosphorylation of ERK, H460), 427 nM; in assay [5] it was 128 nM; in assay [6] it was 605 nM.

For orientation: inhibition means the relative decrease from the control value, in per cent. For the compound `CCc1c(F)ccc2cc(O)cc(-c3ccc4c(N5CCCn6nc(C(=O)N(C)C)c(Cl)c6C5)nc(OC[C@@]56CCCN5C[C@H](F)C6)nc4c3F)c12` [Example 74, 3-chloro-5-(7-(8-ethyl-7-fluoro-3-hydroxynaphthalen-1-yl)-8-fluoro-2-(((2R,7aS)-2-fluorohexahydro-1H-pyrrolizin-7a-yl)methoxy)quinazolin-4-yl)-N,N-dimethyl-5,6,7,8-tetrahydro-4H-pyrazolo[1,5-a][1,4]diazepine-2-carboxamide], the inhibition at 0.1 µM in assay [1] (single point at 100 nM) was 38%; in assay [2] (Homo sapiens), 99%; in assay [3], 78%; in assay [5], 98%; in assay [6] it was 72%.

As for `CCc1c(F)ccc2cc(O)cc(-c3c(F)cc4c(N5CCC[C@@](C)(O)C5)nc(OCC5(CN(C)C)CC5)nc4c3F)c12` [Example 11, (R)-1-(2-((1-((dimethylamino)methyl)cyclopropyl)methoxy)-7-((R)-8-ethyl-7-fluoro-3-hydroxynaphthalen-1-yl)-6,8-difluoroquinazolin-4-yl)-3-methylpiperidin-3-ol], the inhibition at 0.1 µM in assay [2] (Homo sapiens) turned out to be 91%; in assay [3], 49%.

Take `N#Cc1c(N)sc2c(F)ccc(-c3c(Cl)cc4c(N5CCCn6nnc(Cl)c6C5)nc(OC[C@@]56CCCN5C[C@H](F)C6)nc4c3F)c12` (single isomer, unassigned) [Example 196]: the IC50 was 531 nM in assay [2], 2820 nM in assay [3], 472 nM in assay [5] and 2420 nM in assay [6].

Consider `CCc1c(F)ccc2cc(O)cc(-c3c(F)cc4c(N5CCCC6(CC(=O)NC6=O)C5)nc(OC[C@@]56CCCN5C[C@H](F)C6)nc4c3F)c12` (stereo partly drawn) [Example 62, 7-(7-(8-ethyl-7-fluoro-3-hydroxynaphthalen-1-yl)-6,8-difluoro-2-(((2R,7aS)-2-fluorotetrahydro-1H-pyrrolizin-7a(5H)-yl)methoxy)quinazolin-4-yl)-2,7-azaspiro[4.5]decane-1,3-dione], for which the inhibition at 0.1 µM in assay [1] (single point at 100 nM) amounted to 92%; in assay [4] (single point at 100 nM) it was 98%; in assay [5] it was 96%; in assay [6], 72%.

In the case of `CCc1c(F)ccc2cc(O)cc(-c3ccc4c(N5CCCn6nc(C(=O)N7CCOCC7)c(Cl)c6C5)nc(OC[C@@]56CCCN5C[C@H](F)C6)nc4c3F)c12` [Example 73, (3-chloro-5-(7-(8-ethyl-7-fluoro-3-hydroxynaphthalen-1-yl)-8-fluoro-2-(((2R,7aS)-2-fluorohexahydro-1H-pyrrolizin-7a-yl)methoxy)quinazolin-4-yl)-5,6,7,8-tetrahydro-4H-pyrazolo[1,5-a][1,4]diazepin-2-yl)(morpholino)methanone], the inhibition at 0.1 µM in assay [1] (single point at 100 nM) was 48%; in assay [2] (Homo sapiens) it was 97%; in assay [3], 71%; in assay [5] it was 97%; in assay [6], 71%.

`C[C@@]1(O)COCCN(c2nc(OC[C@@]34CCCN3C[C@H](F)C4)nc3c(F)c(-c4ccc(F)c5sc(N)c(C#N)c45)c(Cl)cc23)C1` (atropisomer, axis not shown; (aS)) [Example 193, 2-amino-4-((S)-6-chloro-8-fluoro-2-(((2R,7aS)-2-fluorotetrahydro-1H-pyrrolizin-7a(5H)-yl)methoxy)-4-((S)-6-hydroxy-6-methyl-1,4-oxazepan-4-yl)quinazolin-7-yl)-7-fluorobenzo[b]thiophene-3-carbonitrile]: the concentration for half-maximal inhibition (IC50) in assay [2] came out at 414 nM; in assay [3], 686 nM.

As for `CCc1c(F)ccc2cc(O)cc(-c3c(F)cc4c(N5C[C@@H]6C[C@H](C5)[C@H](O)C6)nc(OC[C@@]56CCCN5C[C@H](F)C6)nc4c3F)c12` (atropisomer, axis not shown; (aS)) [Example 67, (1R,5R,6R)-3-((R)-7-(8-ethyl-7-fluoro-3-hydroxynaphthalen-1-yl)-6,8-difluoro-2-(((2R,7aS)-2-fluorohexahydro-1H-pyrrolizin-7a-yl)methoxy)quinazolin-4-yl)-3-azabicyclo[3.2.1]octan-6-ol], the “Inhibition (HTRF % at 100 nM) of KRas-mediated Phosphorylation of ERK, HCT116” value in assay [1] (HCT116 cells, single point at 100 nM, 0.1 µM) stood at 73%. For the same compound, the “Inhibition (HTRF % at 100 nM) of KRas-mediated Phosphorylation of ERK, H460” value in assay [4] (H460 cells, single point at 100 nM, 0.1 µM) turned out to be 95%. In addition, the inhibition at 0.1 µM in assay [5] was 94%; in assay [6], 81%.

Regarding `CCc1c(F)ccc2cc(O)cc(-c3ccc4c(N5CCCn6nc(C(=O)N(C)C)c(C)c6C5)nc(OC[C@@]56CCCN5C[C@H](F)C6)nc4c3F)c12` [Example 75, 5-(7-(8-ethyl-7-fluoro-3-hydroxynaphthalen-1-yl)-8-fluoro-2-(((2R,7aS)-2-fluorohexahydro-1H-pyrrolizin-7a-yl)methoxy)quinazolin-4-yl)-N,N,3-trimethyl-5,6,7,8-tetrahydro-4H-pyrazolo[1,5-a][1,4]diazepine-2-carboxamide], the inhibition at 0.1 µM in assay [1] (single point at 100 nM) was found to be 29%; in assay [2] (Homo sapiens) it was 95%; in assay [3], 73%; in assay [5], 98%; in assay [6], 79%.

Turning to `CCc1c(F)ccc2cc(O)cc(-c3c(F)cc4c(N5CCCn6nc(C(=O)N7CCOCC7)c(Cl)c6C5)nc(OC[C@@]56CCCN5C[C@H](F)C6)nc4c3F)c12` [Example 79, (3-chloro-5-(7-(8-ethyl-7-fluoro-3-hydroxynaphthalen-1-yl)-6,8-difluoro-2-(((2R,7aS)-2-fluorohexahydro-1H-pyrrolizin-7a-yl)methoxy)quinazolin-4-yl)-5,6,7,8-tetrahydro-4H-pyrazolo[1,5-a][1,4]diazepin-2-yl)(morpholino)methanone], the inhibition at 0.1 µM in assay [1] (single point at 100 nM) came to 64%; in assay [4] (single point at 100 nM) it was 85%; in assay [5], 95%; in assay [6] it was 60%.

Consider `CCc1c(F)ccc2cc(O)cc(-c3c(F)cc4c(N5CCCn6nc(C(=O)NC)c(C)c6C5)nc(OC[C@@]56CCCN5C[C@H](F)C6)nc4c3F)c12` [Example 81, 5-(7-(8-ethyl-7-fluoro-3-hydroxynaphthalen-1-yl)-6,8-difluoro-2-(((2R,7aS)-2-fluorohexahydro-1H-pyrrolizin-7a-yl)methoxy)quinazolin-4-yl)-N,3-dimethyl-5,6,7,8-tetrahydro-4H-pyrazolo[1,5-a][1,4]diazepine-2-carboxamide], for which the inhibition at 0.1 µM in assay [1] (single point at 100 nM) is 32%; in assay [4] (single point at 100 nM), 26%; in assay [5], 98%; in assay [6], 62%.

For the compound `CCc1c(F)ccc2cc(O)cc(C3Cc4nc(OC[C@@]56CCCN5C[C@H](F)C6)nc(N5CCC[C@@](C)(O)C5)c4CO3)c12` (stereo partly drawn) [Example 85, (3R)-1-(7-(8-ethyl-7-fluoro-3-hydroxynaphthalen-1-yl)-2-(((2R,7aS)-2-fluorotetrahydro-1H-pyrrolizin-7a(5H)-yl)methoxy)-7,8-dihydro-5H-pyrano[4,3-d]pyrimidin-4-yl)-3-methylpiperidin-3-ol], the inhibition at 0.1 µM in assay [1] (single point at 100 nM) was -12%; in assay [4] (single point at 100 nM), 16%; in assay [5] it was -7%; in assay [6], 21%.

Take `N#Cc1c(N)sc2c(F)ccc(-c3c(Cl)cc4c(N5CCCn6nnc(Cl)c6C5)nc(OC[C@@]56CCCN5C[C@H](F)C6)nc4c3F)c12` (single isomer, unassigned) [Example 197]: the half-inhibitory concentration (IC50) in assay [2] came out at 2 nM; in assay [3] it was 12 nM; in assay [5], 3 nM; in assay [6], 10 nM.

Take `CCc1c(F)ccc2cc(O)cc(C3Cc4nc(OC[C@@]56CCCN5C[C@H](F)C6)nc(N5CCCC6(C5)NC(=O)NC6=O)c4CO3)c12` (stereo partly drawn) [Example 87, 7-(7-(8-ethyl-7-fluoro-3-hydroxynaphthalen-1-yl)-2-(((2R,7aS)-2-fluorotetrahydro-1H-pyrrolizin-7a(5H)-yl)methoxy)-7,8-dihydro-5H-pyrano[4,3-d]pyrimidin-4-yl)-1,3,7-triazaspiro[4.5]decane-2,4-dione]: the inhibition at 0.1 µM in assay [1] (single point at 100 nM) was -5%; in assay [4] (single point at 100 nM), -8%; in assay [5], 30%; in assay [6] it was 16%.
